In the experiment the test system is L1210 leukemia ip in BDF1 mice, survival T/C. The experiment is described as follows: NCI In Vivo Anticancer Drug Screen. Data for tumor model L1210 Leukemia (intraperitoneal) in B6D2F1 (BDF1) mice. As to conditions: endpoint: mean survival time, higher = longer survival. In short, it runs like this: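 In this screen, tumor-bearing mice given compound are compared to those given vehicle, and their survival values are reported as a treated-to-control quotient.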

Setting [1] is: dose: 100.0 mg/kg/injection, schedule: Q01DX001 (ip), vehicle: carboxymethylcellulose (CMC).
The mark [2] stands for this setting: dose: 200.0 mg/kg/injection, schedule: Q01DX001 (ip), vehicle: carboxymethylcellulose (CMC).
Where [3] appears, read: dose: 200.0 mg/kg/injection, schedule: Q01DX009 (ip), vehicle: saline.
[4] abbreviates: dose: 400.0 mg/kg/injection, schedule: Q01DX001 (ip), vehicle: carboxymethylcellulose (CMC).
Where [5] appears, read: dose: 100.0 mg/kg/injection, schedule: Q04DX002 (ip), vehicle: Klucel (hydroxypropylcellulose) (HPC).
The mark [6] stands for this setting: dose: 100.0 mg/kg/injection, schedule: Q04DX003 (ip), vehicle: Klucel (hydroxypropylcellulose) (HPC).
Where [7] appears, read: dose: 200.0 mg/kg/injection, schedule: Q04DX002 (ip), vehicle: Klucel (hydroxypropylcellulose) (HPC).
[8] abbreviates: dose: 200.0 mg/kg/injection, schedule: Q04DX003 (ip), vehicle: Klucel (hydroxypropylcellulose) (HPC).
Setting [9] is: dose: 400.0 mg/kg/injection, schedule: Q04DX003 (ip), vehicle: Klucel (hydroxypropylcellulose) (HPC).
Setting [10] is: dose: 100.0 mg/kg/injection, schedule: Q04DX003 (ip), vehicle: saline.
Where [11] appears, read: dose: 200.0 mg/kg/injection, schedule: Q04DX003 (ip), vehicle: saline.
Setting [12] is: dose: 400.0 mg/kg/injection, schedule: Q04DX003 (ip), vehicle: saline.
[13] abbreviates: dose: 100.0 mg/kg/injection, schedule: Q04DX003 (ip), vehicle: saline with Tween-80.
Where [14] appears, read: dose: 400.0 mg/kg/injection, schedule: Q04DX003 (ip), vehicle: saline with Tween-80.
[15] abbreviates: dose: 100.0 mg/kg/injection, schedule: Q01DX001 (ip), vehicle: saline with Tween-80.
The mark [16] stands for this setting: dose: 200.0 mg/kg/injection, schedule: Q01DX001 (ip), vehicle: saline with Tween-80.
Where [17] appears, read: dose: 400.0 mg/kg/injection, schedule: Q01DX001 (ip), vehicle: saline with Tween-80.
[18] abbreviates: dose: 100.0 mg/kg/injection, schedule: Q01DX001 (ip), vehicle: saline.
[19] abbreviates: dose: 200.0 mg/kg/injection, schedule: Q01DX001 (ip), vehicle: saline.
Setting [20] is: dose: 400.0 mg/kg/injection, schedule: Q01DX001 (ip), vehicle: saline.

Several values for one entry are separate records, joined by “and”; a condition that tells them apart may be missing. Equal entries are not always repeated. Toxic doses and inconclusive results are not listed.

For the molecule `Nc1cccc2cccc([N+](=O)[O-])c12`, the T/C by setting is: under setting [1], 100 % of control; (dose: 100.0 mg/kg/injection, schedule: Q01DX009 (ip), vehicle: saline) 87 % of control; under setting [2], 94 % of control; under setting [3], 94 % of control; under setting [4], 96 % of control.
In the case of `Oc1ccccc1C=NCCN1CC1.Oc1ccccc1C=NCCN1CC1.[Co+2]`, the T/C is 102 % of control (dose: 20.0 mg/kg/injection, schedule: Q04DX002 (ip), vehicle: saline + alcohol); 106 % of control (dose: 40.0 mg/kg/injection, schedule: Q04DX002 (ip), vehicle: saline + alcohol); 98 % of control (dose: 80.0 mg/kg/injection, schedule: Q04DX002 (ip), vehicle: saline + alcohol).
Consider `O=C(NC(=S)Nc1ccc(Cl)c(Cl)c1)c1cccc([N+](=O)[O-])c1`, for which the T/C is, setting by setting: (dose: 100.0 mg/kg/injection, schedule: Q01DX009 (ip), vehicle: Klucel (hydroxypropylcellulose) (HPC)) 95 % of control; under setting [5], 95 % of control and 97 % of control; under setting [6], 93 % of control; (dose: 200.0 mg/kg/injection, schedule: Q01DX009 (ip), vehicle: Klucel (hydroxypropylcellulose) (HPC)) 95 % of control; under setting [7], 93 % of control and 97 % of control; under setting [8], 95 % of control. In addition, the T/C was 92 % of control and 94 % of control (dose: 400.0 mg/kg/injection, schedule: Q01DX009 (ip), vehicle: Klucel (hydroxypropylcellulose) (HPC)); 95 % of control and 102 % of control (dose: 400.0 mg/kg/injection, schedule: Q04DX002 (ip), vehicle: Klucel (hydroxypropylcellulose) (HPC)); 93 % of control under setting [9].
As for `COc1ccc(N2C(=O)OC3(CCN(Cc4ccccc4)CC3)C2=O)cc1`, the T/C reads like this: (dose: 100.0 mg/kg/injection, schedule: Q01DX001 (ip), vehicle: Klucel (hydroxypropylcellulose) (HPC)) 96 % of control; (dose: 200.0 mg/kg/injection, schedule: Q01DX001 (ip), vehicle: Klucel (hydroxypropylcellulose) (HPC)) 103 % of control; (dose: 400.0 mg/kg/injection, schedule: Q01DX001 (ip), vehicle: Klucel (hydroxypropylcellulose) (HPC)) 92 % of control.
As for `CCOC(=O)c1c(C)[nH]oc1=O`, the T/C under setting [10] was 111 % of control, the T/C under setting [11] was 102 % of control and the T/C under setting [12] was 96 % of control.
Consider `Clc1ccc(N/N=C(\Oc2ccccc2)c2ccccc2)cc1`, for which the T/C runs as follows: under setting [13], 104 % of control; under setting [14], 98 % of control.
In the case of `CC(=O)N1C(=O)NC(=O)C1(C)c1ccco1` (stereo unspecified), the T/C is 103 % of control (dose: 100.0 mg/kg/injection, schedule: Q01DX009 (ip), vehicle: saline with Tween-80); 94 % of control under setting [13]; 100 % of control (dose: 200.0 mg/kg/injection, schedule: Q01DX009 (ip), vehicle: saline with Tween-80); 97 % of control (dose: 200.0 mg/kg/injection, schedule: Q04DX003 (ip), vehicle: saline with Tween-80); 97 % of control (dose: 400.0 mg/kg/injection, schedule: Q01DX009 (ip), vehicle: saline with Tween-80); 105 % of control under setting [14].
As for `CC(C)(C)OC(=O)NOc1ccc([N+](=O)[O-])cc1[N+](=O)[O-]`, the T/C is, setting by setting: (dose: 2.0 mg/kg/injection, schedule: Q01DX009 (ip), vehicle: saline with Tween-80) 95 % of control; (dose: 4.0 mg/kg/injection, schedule: Q01DX009 (ip), vehicle: saline with Tween-80) 106 % of control; (dose: 8.0 mg/kg/injection, schedule: Q01DX009 (ip), vehicle: saline with Tween-80) 107 % of control; (dose: 16.0 mg/kg/injection, schedule: Q01DX009 (ip), vehicle: saline with Tween-80) 101 % of control; (dose: 25.0 mg/kg/injection, schedule: Q04DX003 (ip), vehicle: saline with Tween-80) 105 % of control; (dose: 50.0 mg/kg/injection, schedule: Q04DX003 (ip), vehicle: saline with Tween-80) 92 % of control. Further, the T/C reads like this: (dose: 75.0 mg/kg/injection, schedule: Q01DX001 (ip), vehicle: carboxymethylcellulose (CMC)) 96 % of control; under setting [13], 88 % of control.
For `O=C(c1ccccc1)N(O)c1ccccc1`, the T/C by setting is: (dose: 75.0 mg/kg/injection, schedule: Q01DX001 (ip), vehicle: saline) 93 % of control; (dose: 75.0 mg/kg/injection, schedule: Q01DX009 (ip), vehicle: saline) 91 % of control; (dose: 150.0 mg/kg/injection, schedule: Q01DX001 (ip), vehicle: saline) 104 % of control; (dose: 150.0 mg/kg/injection, schedule: Q01DX009 (ip), vehicle: saline) 98 % of control; (dose: 300.0 mg/kg/injection, schedule: Q01DX001 (ip), vehicle: saline) 95 % of control; (dose: 300.0 mg/kg/injection, schedule: Q01DX009 (ip), vehicle: saline) 96 % of control.
For `c1ccc(N/N=C(\c2ccccc2)c2ccccn2)cc1`, the T/C under setting [15] was 105 % of control, the T/C under setting [16] was 94 % of control and the T/C under setting [17] was 94 % of control.
`[N-]=[N+]=NC(=O)C1(Br)CCC2c3ccccc3C([N+](=O)[O-])(C1)c1ccccc12` (stereo unspecified): the T/C is 101 % of control under setting [10], 98 % of control under setting [11] and 93 % of control under setting [12].
On to `COC(=O)c1cn[nH]c1/N=N/N(C)CCO`, for which the T/C by setting is: under setting [18], 113 % of control; under setting [10], 119 % of control; under setting [19], 117 % of control; under setting [3], 163 % of control; under setting [11], 119 % of control; under setting [20], 107 % of control. Moreover, the T/C under setting [12] is 119 % of control.
For the molecule `c1ccc(Oc2nnc3c4ccccc4ccn23)cc1`, the T/C by setting is: under setting [1], 98 % of control; under setting [2], 98 % of control; under setting [4], 98 % of control.
For `Cc1cc(=O)[nH]c(NCCCCC(N)C(=O)O)n1` (stereo unspecified), the T/C is 103 % of control (dose: 50.0 mg/kg/injection, schedule: Q04DX003 (ip), vehicle: saline); 100 % of control under setting [10]; 101 % of control under setting [11].
Regarding `CC(NCl)c1ccccc1` (stereo unspecified), the T/C is 95 % of control under setting [18], 100 % of control under setting [19] and 100 % of control under setting [20].
As to `c1ccc(CC2NC2c2ccccc2)cc1` (stereo unspecified), the T/C by setting is: under setting [5], 92 % of control; under setting [6], 96 % of control; under setting [7], 98 % of control; under setting [8], 96 % of control; under setting [9], 103 % of control.
As to `CSc1cc(=O)n(C2OC(COC(C)=O)C(OC(C)=O)C2OC(C)=O)c(=O)[nH]1` (stereo unspecified), the T/C (dose: 100.0 mg/kg/injection, schedule: Q01DX005 (ip), vehicle: saline) was 95 % of control and the T/C (dose: 200.0 mg/kg/injection, schedule: Q01DX005 (ip), vehicle: saline) was 97 % of control.
As to `C/C(=N\NC(N)=S)C(C)(C)O`, the T/C runs as follows: under setting [1], 110 % of control; under setting [2], 108 % of control; under setting [4], 104 % of control.
With `Oc1c(-c2ccccc2)c(-c2ccccc2)cc(-c2ccccc2)c1-c1ccccc1`, the T/C reads like this: under setting [15], 102 % of control; under setting [16], 94 % of control; under setting [17], 88 % of control.
For `CCC1COC(=S)N1` (stereo unspecified), the T/C by setting is: (dose: 6.25 mg/kg/injection, schedule: Q01DX001 (ip), vehicle: Klucel (hydroxypropylcellulose) (HPC)) 93 % of control; (dose: 6.25 mg/kg/injection, schedule: Q01DX009 (ip), vehicle: saline) 91 % of control; (dose: 12.5 mg/kg/injection, schedule: Q01DX001 (ip), vehicle: Klucel (hydroxypropylcellulose) (HPC)) 108 % of control; (dose: 12.5 mg/kg/injection, schedule: Q01DX009 (ip), vehicle: saline) 105 % of control; (dose: 25.0 mg/kg/injection, schedule: Q01DX001 (ip), vehicle: Klucel (hydroxypropylcellulose) (HPC)) 100 % of control; (dose: 25.0 mg/kg/injection, schedule: Q04DX002 (ip), vehicle: saline with Tween-80) 103 % of control.

Values taken from PubChem BioAssay AID248 (DTP/NCI, 2004).
